Calls of active or inactive are those of the source. The rule behind the calls is not given here.
What was measured:
[1] = system: A549; test: Ratio of perifosine IC50 to compound IC50 for human A549 cells; type: functional
[2] = system: A549; test: Inhibition of Akt phosphorylation at Ser473 site in human A549 cells at IC50 after 72 hrs by ELISA; type: cell-based
[3] = system: A549; test: Cytotoxicity against human A549 cells at 0.01 to 100 uM by haemocytometry; type: functional, cell-based; conditions: TDE = time-dependent effect
[4] = system: A549; test: Cytotoxicity against human A549 cells after 24 to 72 hrs by haemocytometry; type: functional, cell-based
[5] = system: A549; test: Ratio of sunitinib IC50 to compound IC50 for human A549 cells; type: functional
[6] = system: A549; test: Cell cycle arrest in human A549 cells assessed as decrease in G1 cells at IC50 after 24 hrs followed by compound washout by propidium iodide staining-based FACS analysis; type: functional; parameters: scale not given: the % may be the effect or the level left
[7] = system: A549; test: Induction of apoptosis in human A549 cells assessed as nuclear fragmentation at IC50 by fluorescence microscopy; type: functional, cell-based
[8] = system: A549; test: Inhibition of Akt phosphorylation at Thr308 site in human A549 cells at IC50 after 72 hrs by ELISA; type: cell-based
[9] = system: A549; test: Induction of apoptosis in human A549 cells assessed as cellular rupture into debris at IC50 by fluorescence microscopy; type: functional, cell-based
[10] = system: A549; test: Cell cycle arrest in human A549 cells assessed as decrease in S cells at IC50 after 24 hrs followed by compound washout by propidium iodide staining-based FACS analysis; type: functional; parameters: scale not given: the % may be the effect or the level left
[11] = system: A549; test: Induction of apoptosis in human A549 cells assessed as cell shrinkage at IC50 by fluorescence microscopy; type: functional, cell-based
[12] = system: A549; test: Cell cycle arrest in human A549 cells assessed as decrease in G2 cells at IC50 after 24 hrs followed by compound washout by propidium iodide staining-based FACS analysis; type: functional; parameters: scale not given: the % may be the effect or the level left
[13] = system: MDA-MB-231; test: Selectivity for human HCC827 cells over human MDA-MB-231 cells; type: functional
[14] = system: A549; test: Induction of apoptosis in human A549 cells assessed as apoptotic index at IC50 by fluorescence microscopy relative to control; type: functional
[15] = system: A549; test: Inhibition of Akt phosphorylation at Thr308 site in human A549 cells at 10 uM after 3 hrs followed by 10 mins incubation in 10% FBS by Western blotting analysis; type: cell-based
[16] = system: A549; test: Inhibition of Akt phosphorylation in human A549 cells assessed as inhibition of FoxO1 phosphorylation at Thr24 at 10 uM after 3 hrs followed by 10 mins incubation in 10% FBS by Western blotting analysis; type: cell-based
[17] = system: A549; test: Inhibition of Akt phosphorylation in human A549 cells assessed as inhibition of FoxO3a phosphorylation at Thr32 at 10 uM after 3 hrs followed by 10 mins incubation in 10% FBS by Western blotting analysis; type: cell-based
[18] = biological target: Epidermal growth factor receptor (Homo sapiens) (UniProt P00533); test: Inhibition of EGFR phosphorylation at […] in human A549 cells at 10 uM after 3 hrs followed by 10 mins incubation in 10% FBS by Western blotting analysis; type: cell-based
[19] = system: MDA-MB-231; test: Cytotoxicity against human MDA-MB-231 cells at 1 to 10 uM after 72 hrs by haemocytometry; type: functional, cell-based
[20] = biological target: Receptor tyrosine-protein kinase erbB-2 (Homo sapiens) (UniProt P04626); test: Inhibition of Her2 phosphorylation at Tyr1221/1222 in human A549 cells at 10 uM after 3 hrs followed by 10 mins incubation in 10% FBS by Western blotting analysis; type: cell-based
[21] = Cytotoxicity against human HCC827 cells after 24 to 72 hrs by haemocytometry; type: functional, cell-based

Sequence of Epidermal growth factor receptor (Homo sapiens) (P00533 whole entry): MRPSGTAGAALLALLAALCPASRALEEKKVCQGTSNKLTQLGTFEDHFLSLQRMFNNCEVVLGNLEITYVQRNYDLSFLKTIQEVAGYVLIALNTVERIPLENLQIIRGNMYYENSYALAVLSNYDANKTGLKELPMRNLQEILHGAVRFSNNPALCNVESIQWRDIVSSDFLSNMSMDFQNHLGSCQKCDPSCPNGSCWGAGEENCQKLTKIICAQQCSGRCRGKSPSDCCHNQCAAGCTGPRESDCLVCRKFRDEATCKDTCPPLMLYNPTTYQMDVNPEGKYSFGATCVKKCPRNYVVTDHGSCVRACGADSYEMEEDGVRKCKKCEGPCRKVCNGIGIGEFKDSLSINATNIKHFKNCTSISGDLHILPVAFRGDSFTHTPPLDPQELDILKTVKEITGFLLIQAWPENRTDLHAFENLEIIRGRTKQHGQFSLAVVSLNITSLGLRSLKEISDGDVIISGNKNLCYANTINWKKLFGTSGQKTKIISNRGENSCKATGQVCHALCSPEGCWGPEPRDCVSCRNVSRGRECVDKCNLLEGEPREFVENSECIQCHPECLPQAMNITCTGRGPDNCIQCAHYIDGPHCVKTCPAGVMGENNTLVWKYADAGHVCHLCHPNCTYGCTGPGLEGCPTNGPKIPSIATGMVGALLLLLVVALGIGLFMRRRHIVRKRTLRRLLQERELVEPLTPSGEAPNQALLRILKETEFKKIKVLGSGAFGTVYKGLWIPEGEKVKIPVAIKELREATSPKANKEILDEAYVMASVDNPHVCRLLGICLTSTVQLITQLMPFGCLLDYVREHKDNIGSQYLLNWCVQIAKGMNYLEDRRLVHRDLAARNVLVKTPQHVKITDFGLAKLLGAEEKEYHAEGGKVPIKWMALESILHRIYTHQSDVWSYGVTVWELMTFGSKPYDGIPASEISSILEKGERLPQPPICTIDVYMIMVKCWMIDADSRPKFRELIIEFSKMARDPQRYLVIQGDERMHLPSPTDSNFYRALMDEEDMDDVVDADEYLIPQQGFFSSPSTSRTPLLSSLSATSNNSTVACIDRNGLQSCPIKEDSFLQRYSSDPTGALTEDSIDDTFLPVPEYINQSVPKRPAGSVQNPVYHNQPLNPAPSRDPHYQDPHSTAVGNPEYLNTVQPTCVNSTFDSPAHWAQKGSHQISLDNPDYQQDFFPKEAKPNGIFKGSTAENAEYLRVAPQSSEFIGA
Sequence of Receptor tyrosine-protein kinase erbB-2 (Homo sapiens) (P04626 whole entry): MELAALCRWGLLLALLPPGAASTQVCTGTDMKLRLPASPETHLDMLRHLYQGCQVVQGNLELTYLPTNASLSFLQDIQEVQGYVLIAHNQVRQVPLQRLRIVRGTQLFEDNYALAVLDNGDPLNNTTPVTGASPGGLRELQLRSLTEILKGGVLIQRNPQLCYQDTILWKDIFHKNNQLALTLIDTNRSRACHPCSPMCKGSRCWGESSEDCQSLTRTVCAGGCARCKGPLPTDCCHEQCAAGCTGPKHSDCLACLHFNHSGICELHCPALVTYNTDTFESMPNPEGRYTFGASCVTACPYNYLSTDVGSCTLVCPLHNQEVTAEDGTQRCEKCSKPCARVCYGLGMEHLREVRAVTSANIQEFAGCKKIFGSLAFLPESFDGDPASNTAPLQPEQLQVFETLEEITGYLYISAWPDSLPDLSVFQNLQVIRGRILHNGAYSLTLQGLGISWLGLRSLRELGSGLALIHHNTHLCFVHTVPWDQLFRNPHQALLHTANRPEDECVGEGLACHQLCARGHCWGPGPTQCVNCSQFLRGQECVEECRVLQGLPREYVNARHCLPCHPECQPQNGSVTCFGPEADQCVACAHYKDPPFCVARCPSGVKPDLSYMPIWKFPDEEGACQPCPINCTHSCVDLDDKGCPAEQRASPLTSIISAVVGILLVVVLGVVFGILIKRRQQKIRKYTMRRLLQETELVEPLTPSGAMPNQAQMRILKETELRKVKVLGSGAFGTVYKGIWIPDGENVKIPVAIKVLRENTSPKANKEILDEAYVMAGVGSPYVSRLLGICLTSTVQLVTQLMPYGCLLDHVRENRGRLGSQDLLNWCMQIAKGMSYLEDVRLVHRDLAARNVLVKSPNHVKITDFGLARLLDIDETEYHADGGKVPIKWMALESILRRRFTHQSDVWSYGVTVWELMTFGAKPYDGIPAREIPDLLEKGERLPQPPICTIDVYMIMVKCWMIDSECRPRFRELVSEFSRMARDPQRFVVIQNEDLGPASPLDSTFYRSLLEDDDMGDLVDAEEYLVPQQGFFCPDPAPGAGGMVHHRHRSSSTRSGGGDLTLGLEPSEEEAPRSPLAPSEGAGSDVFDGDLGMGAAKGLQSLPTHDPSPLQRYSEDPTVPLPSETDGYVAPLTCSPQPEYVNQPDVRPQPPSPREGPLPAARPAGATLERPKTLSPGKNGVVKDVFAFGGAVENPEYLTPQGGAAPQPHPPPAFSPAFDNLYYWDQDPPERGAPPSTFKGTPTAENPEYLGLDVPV

Compound | Ratio IC50 [1] | inhibition [2] [%] | Activity [3] | Activity [4] | IC50 [4] [µM] | Ratio IC50 [5] | Activity [6] [%] | Activity [7] | inhibition [8] [%] | Activity [9] | Activity [10] [%] | Activity [11] | Activity [12] [%] | Activity [14] [%] | other results
COc1cc2c(cc1OC)CN(CC(=O)Nc1ccc3c(c1)/C(=C/c1cnc[nH]1)C(=O)N3)CC2 | 2 | 20 | tde | Dose-dependent effect | 2.19 | 2.5 | -0.1 | Active | 20 | Active | -0.51 | Active | -0.61 |  | 
COc1cc2c(cc1OC)CN(CC(=O)Nc1ccc3c(c1)/C(=C\c1ccccn1)C(=O)N3)CC2 |  | 20 | tde | Dose-dependent effect | 19.9 |  | 1.06 | Active | 20 | Active | -2.75 | Active | 1.69 |  | 
COc1cc2ncnc(Nc3ccc(F)c(Cl)c3)c2cc1OCCCN1CCOCC1 [GEFITINIB] |  |  |  |  |  |  |  |  |  |  |  |  |  |  | Selectivity ratio [13]: 1700
CCCCCCCCCCCCCCCCCCOP(=O)([O-])OC1CC[N+](C)(C)CC1 [PERIFOSINE] |  |  | tde | Dose-dependent effect | 4.17 |  | 18.56 |  |  |  | -4.05 |  | -14.51 | 32 | 
COc1cc2c(cc1OC)CN(CC(=O)Nc1ccc3c(c1)/C(=C\c1nccn1C)C(=O)N3)CC2 | 2 | 20 | tde | Dose-dependent effect | 2.75 | 2.5 | -0.85 | Active | 20 | Active | 1.33 | Active | -0.48 |  | inhibition [15]: Active; inhibition [16]: Active; inhibition [17]: Active; inhibition [18]: inactive; Activity [19]: inactive; inhibition [20]: inactive
COc1cc2c(cc1OC)CN(CC(=O)Nc1ccc3c(c1)/C(=C/c1cccs1)C(=O)N3)CC2 | 2 | 20 | tde | Dose-dependent effect | 0.66 | 2.5 | 21.04 | Active | 20 | Active | -10.23 | Active | -11.2 | 24 | inhibition [15]: Active; inhibition [16]: Active; inhibition [17]: Active; inhibition [18]: inactive; IC50 [21]: 0.045 µM; Activity [19]: inactive; inhibition [20]: inactive
COc1cc2c(cc1OC)CN(CC(=O)Nc1ccc3c(c1)CC(=O)N3)CC2 |  | 20 | tde | Dose-dependent effect | 16.2 |  | 19.24 | Active | 20 | Active | -4.99 | Active | -14.25 | 12 | 

— ChEMBL document CHEMBL3091407, “Synthesis of Novel 3,5-Disubstituted-2-oxindole Derivatives As Antitumor Agents against Human Nonsmall Cell Lung Cancer” (ACS Med Chem Lett, 2013)
